Results on three compounds are retold here after patent US8673908B2, “Kynurenine production inhibitor” (Kyowa Hakko Kirin Co., Ltd., priority 2008, dated 2014).

pIC50: −log10 of the molar value. Like-named read-outs stand apart in the source and are kept apart here. Where only a bound is given, the exact number is not on record here.

The test system of one assay is allogeneic pregnant mice. To be noted: cited from earlier work.
Another assay concerns T cells. To be noted: in the presence of IDO-expressing cancer cells and dendritic cells; cited from earlier work.
The test system of another assay is kynurenine production. The note with it: competes with tryptophan; cited from earlier work.
For another assay, the system named is mouse melanoma cells. To be noted: cited from earlier work.
In assay [1] the test system is kynurenine production in IFN-γ-treated KATO-III cells. The assay is described as follows: Inhibitory activity on kynurenine production (Test Example 1). The note with it: Homo sapiens, IFN-γ treatment, culture for 96 hours, read-out: IC50 value, inhibition of kynurenine production. Format: cell-based. A digest of the protocol: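 KATO-III human gastric cancer cells (2,000/well, RPMI 1640 + 10% FBS) were cultured with compound and IFN-γ (31.25 ng/mL in the cell suspension), DMSO ≤0.1%, for 96 h at 37 °C, 5% CO2. Kynurenine was read at A480 after TCA at 65 °C and p-dimethylaminobenzaldehyde. Inhibition used IFN-γ-treated and untreated DMSO wells as references.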

The subject of assay [2] is 4T1 mouse breast cancer cells. Put plainly: Antitumor effect in mice transplanted with 4T1 cells (Test Example 2). Format: in vivo, BALB/c mice. To be noted: for T/C: oral, once or twice daily. The method, then: 5-week-old BALB/c mice (male, supplied from CLEA Japan, Inc.) were purchased. After quarantine and stabilization, mice which favorably gained their weight and had no apparent abnormalities were used in the test. The test started from 6 weeks of age. The mice were housed in groups of 6 mice per plastic cage with free access to commercial solid feed and water in a breeding room in which the room temperature was 19° C. to 25° C., the humidity was 30 to 70% and the light was kept on for 12 hours a day (7:00 a.m. to 7:00 p.m.).
The abdominal hair of the BALB/c mice was shaved on the day before the test. Transplantation was performed by subcutaneous injection of a suspension containing 1×10^6 4T1 mouse breast cancer cells in 100 μL of phosphate buffered saline (PBS) from the shaved region of each mouse.
When the tumor volume reached 30 to 80 mm^3, the mice were divided into groups so that the average tumor volume of each group was equal. The test compound was suspended in 0.5% (w/v) methylcellulose 400 cP (manufactured by Wako Pure Chemical Industries, Ltd.), and the suspension was orally administered to each mouse of the corresponding group once or twice daily. The tumor volume was calculated using the formula (a×b^2)/2 (a: tumor major axis, b: tumor minor axis). The tumor volume (V) was measured twice or three times a week, and the tumor growth rate (V/V0) was calculated by division of the tumor volume (V) by the tumor volume on the day of the first administration (V0). The T/C (treatment group/control group) value was calculated by division of the V/V0 value of the test compound treatment group by the V/V0 value of the control group, based on which the antitumor effect was evaluated.
Statistical analysis was performed on the tumor volumes of the control group and the treatment group, using student's T-test. If the p value was <0.05, we considered the difference significant.

On to `Cn1cc(C[C@H](N)C(=O)O)c2ccccc21` [Compound 1-MT, 1-methyltryptophan], for which the MHC-restricted rejection entry with allogeneic pregnant mice is “induces major histocompatibility complex (MHC)-restricted rejection”. The “suppression of T cell proliferation” value in the assay with T cells is on record as “cancelled”. The “effect on kynurenine production” value in the assay with kynurenine production is given as “inhibits kynurenine production”. Moreover, the antitumor effect result in the assay with mouse melanoma cells (immunodeficient mice) was “disappears”; in the assay with mouse melanoma cells (mice bearing mouse melanoma cells) it was “shows an antitumor effect”.

Turning to `CCCS(=O)(=O)Nc1nc2ccccc2nc1OC(c1cccnc1)C(F)(F)F` (stereo not shown) [Compound 179, N-{3-[2,2,2-trifluoro-1-(pyridin-3-yl)ethoxy]quinoxalin-2-yl}propane-1-sulfonamide], the pIC50 in assay [1] is above 6.00. Moreover, the T/C in assay [2] (Day 4, dose 0.1 mg/kg) stood at 0.76; in assay [2] (Day 7, dose 0.1 mg/kg), 0.50. Further, the “tumor growth inhibition (in words)” value in assay [2] (Day 4 and Day 7 after administration) is “significantly inhibited tumor growth”.

Turning to `CC(Oc1nc2ccccc2nc1NS(=O)(=O)c1cccc(Cl)c1Cl)c1cccnc1` (stereo not shown) [Compound 16, 2,3-dichloro-N-{3-[1-(pyridin-3-yl)ethoxy]quinoxalin-2-yl}-benzenesulfonamide], in assay [1], the pIC50 was above 6.00. For the same compound, the T/C in assay [2] (Day 3, dose 100 mg/kg) is given as 0.62; in assay [2] (Day 7, dose 100 mg/kg), 0.58. In addition, the “tumor growth inhibition (in words)” value in assay [2] (Day 3 and Day 7 after administration) is recorded as “significantly inhibited tumor growth”.
